What all share (type): biochemical
In one test the target is T1, FGFR1 (Homo sapiens, UniProt P11362).
T1 construct: purchased Life technology
As to the kind of experiment: Z'-LYTE in vitro enzyme activity assay, FGFR1. To be noted: 25 μM ATP, 60 minutes, room temperature; read-out: IC50 detected by Z'-LYTE, FGFR1. The method, then:
(§1) The enzyme activity was measured by Z′-LYTE™ Detection Kinase Assay. The IC50 value of the compounds was used as an index to evaluate the inhibitory effect of the compounds on VEGFR2, FGFR1 and PDGFRB.
(§2) Recombinant human VEGFR2 and FGFR1 proteases were purchased from Life technology, PDGFRB Protease was purchased from Millipore.
(§3) Z-LYTE™ Kit Tyr1 and Tyr4 were purchased from Life technology. Multi-microplate reader, Envision (PerkinElmer) read board was used.
(§4) The test compounds were diluted 3 times with a concentration gradient, the final concentration was from 10 μM to 0.17 nM with a total of 11 concentrations, and each concentration had two parallel holes; the content of DMSO in the assay was 1%.
1 nM FGFR1 protein kinase, 2 μM Tyr4 peptide, 25 μM ATP, 50 mM HEPES (pH 7.5), 10 mM MgCl2, 1 mM EGTA, 0.01% BRIJ-35, 2 mM MnCl2, 1 mM DTT. The detector plate was Black Proxiplate 384-Plus plate (PerkinElmer), the reaction was performed at room temperature for 60 minutes, and the reaction system was 10 μl.
(§5) The reaction was stopped by adding 5 μl of DV reagent B (1:128) to the kinase reaction solution and incubated at 23° C. for 60 minutes. The Envision instrument was used to read the plate.
(§6) The data was converted to phosphorylation rate and inhibition rate and the 4 parameter curve fitting (Model 205 in XLFIT5, iDBS) was used to get IC50 data of the compounds.

Another test addresses T2, PDGFRB (Homo sapiens, UniProt P09619).
T2 construct: purchased Millipore
As to the kind of experiment: Z'-LYTE in vitro enzyme activity assay, PDGFRB. To be noted: 100 μM ATP, 60 minutes, room temperature; read-out: IC50 detected by Z'-LYTE, PDGFRB. The method, then:
as §1, §2, §3, §4
40 nM PDGFRB protein kinase, 2 μM Tyr4 peptide, 100 μM ATP, 50 mM HEPES (pH 7.5), 10 mM MgCl2, 1 mM EGTA, 0.01% BRIJ-35, 2 mM MnCl2, 1 mM DTT. The detector plate was Black Proxiplate 384-Plus plate (PerkinElmer), the reaction was performed at room temperature for 60 minutes, and the reaction system was 10 μl.
as §5, §6

In another test the target is T3, VEGFR2 (Homo sapiens, UniProt P35968).
T3 construct: purchased Life technology
As to the kind of experiment: Z'-LYTE in vitro enzyme activity assay, VEGFR2. The note with it: 100 μM ATP, 60 minutes, room temperature; read-out: IC50 detected by Z'-LYTE, VEGFR2. As to the method: as §1, §2, §3, §4
3 nM VEGFR2 protein kinase, 2 μM Tyr1 peptide, 100 μM ATP, 50 mM HEPES (pH 7.5), 10 mM MgCl2, 1 mM EGTA, 0.01% BRIJ-35. The detector plate was Black Proxiplate 384-Plus plate (PerkinElmer), the reaction was performed at room temperature for 60 minutes, and the reaction system was 10 μl.
as §5, §6

Molecules are shown by their SMILES.

T2 sequence (P09619 33-1106): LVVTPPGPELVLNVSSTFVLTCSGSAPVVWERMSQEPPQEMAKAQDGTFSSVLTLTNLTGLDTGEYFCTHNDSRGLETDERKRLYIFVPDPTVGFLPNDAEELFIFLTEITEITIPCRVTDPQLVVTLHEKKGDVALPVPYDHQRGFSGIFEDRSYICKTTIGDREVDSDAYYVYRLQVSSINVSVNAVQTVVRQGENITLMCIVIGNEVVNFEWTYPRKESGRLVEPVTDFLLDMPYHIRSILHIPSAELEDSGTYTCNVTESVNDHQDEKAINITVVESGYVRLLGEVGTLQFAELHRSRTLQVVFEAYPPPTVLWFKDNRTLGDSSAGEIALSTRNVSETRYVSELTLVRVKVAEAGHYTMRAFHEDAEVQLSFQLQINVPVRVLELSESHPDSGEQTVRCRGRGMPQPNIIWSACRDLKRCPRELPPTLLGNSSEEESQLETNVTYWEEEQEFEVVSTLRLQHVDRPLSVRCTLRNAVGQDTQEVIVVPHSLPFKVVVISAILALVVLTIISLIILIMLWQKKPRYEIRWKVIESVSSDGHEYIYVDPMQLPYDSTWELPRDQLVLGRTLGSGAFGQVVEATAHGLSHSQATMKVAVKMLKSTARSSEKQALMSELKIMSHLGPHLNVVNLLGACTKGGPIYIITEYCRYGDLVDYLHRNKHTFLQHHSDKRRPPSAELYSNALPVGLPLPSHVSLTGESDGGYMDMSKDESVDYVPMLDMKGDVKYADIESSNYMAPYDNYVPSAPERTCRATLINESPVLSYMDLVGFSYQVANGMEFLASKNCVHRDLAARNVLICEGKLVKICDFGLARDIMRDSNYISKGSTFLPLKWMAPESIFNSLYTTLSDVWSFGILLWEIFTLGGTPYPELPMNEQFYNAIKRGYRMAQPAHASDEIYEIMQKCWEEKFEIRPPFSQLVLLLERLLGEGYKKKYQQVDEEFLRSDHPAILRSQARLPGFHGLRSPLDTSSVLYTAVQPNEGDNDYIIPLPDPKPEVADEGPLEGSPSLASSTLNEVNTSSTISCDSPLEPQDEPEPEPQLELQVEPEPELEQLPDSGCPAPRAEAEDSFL
T1 sequence (P11362 22-822): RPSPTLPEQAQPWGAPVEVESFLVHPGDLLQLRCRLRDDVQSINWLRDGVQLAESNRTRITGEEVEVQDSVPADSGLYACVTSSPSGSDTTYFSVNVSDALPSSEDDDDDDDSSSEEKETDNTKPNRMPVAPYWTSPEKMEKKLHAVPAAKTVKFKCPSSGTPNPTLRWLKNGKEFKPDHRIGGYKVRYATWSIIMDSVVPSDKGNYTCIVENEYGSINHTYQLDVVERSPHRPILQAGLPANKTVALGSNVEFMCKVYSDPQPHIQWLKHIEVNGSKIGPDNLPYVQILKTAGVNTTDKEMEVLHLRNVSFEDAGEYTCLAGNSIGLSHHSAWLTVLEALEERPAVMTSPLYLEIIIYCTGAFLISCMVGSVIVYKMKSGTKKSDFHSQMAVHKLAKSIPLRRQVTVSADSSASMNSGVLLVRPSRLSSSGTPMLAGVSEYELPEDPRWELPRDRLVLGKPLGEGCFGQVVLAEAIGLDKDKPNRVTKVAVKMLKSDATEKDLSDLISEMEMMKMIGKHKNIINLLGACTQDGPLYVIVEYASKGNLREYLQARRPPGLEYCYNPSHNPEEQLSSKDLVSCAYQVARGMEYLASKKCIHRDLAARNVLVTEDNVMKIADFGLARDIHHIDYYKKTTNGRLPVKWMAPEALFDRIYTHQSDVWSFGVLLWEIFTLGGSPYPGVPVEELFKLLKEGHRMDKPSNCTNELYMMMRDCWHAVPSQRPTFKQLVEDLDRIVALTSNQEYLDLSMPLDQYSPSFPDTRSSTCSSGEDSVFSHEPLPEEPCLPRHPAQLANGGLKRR
T3 sequence (P35968 20-1356): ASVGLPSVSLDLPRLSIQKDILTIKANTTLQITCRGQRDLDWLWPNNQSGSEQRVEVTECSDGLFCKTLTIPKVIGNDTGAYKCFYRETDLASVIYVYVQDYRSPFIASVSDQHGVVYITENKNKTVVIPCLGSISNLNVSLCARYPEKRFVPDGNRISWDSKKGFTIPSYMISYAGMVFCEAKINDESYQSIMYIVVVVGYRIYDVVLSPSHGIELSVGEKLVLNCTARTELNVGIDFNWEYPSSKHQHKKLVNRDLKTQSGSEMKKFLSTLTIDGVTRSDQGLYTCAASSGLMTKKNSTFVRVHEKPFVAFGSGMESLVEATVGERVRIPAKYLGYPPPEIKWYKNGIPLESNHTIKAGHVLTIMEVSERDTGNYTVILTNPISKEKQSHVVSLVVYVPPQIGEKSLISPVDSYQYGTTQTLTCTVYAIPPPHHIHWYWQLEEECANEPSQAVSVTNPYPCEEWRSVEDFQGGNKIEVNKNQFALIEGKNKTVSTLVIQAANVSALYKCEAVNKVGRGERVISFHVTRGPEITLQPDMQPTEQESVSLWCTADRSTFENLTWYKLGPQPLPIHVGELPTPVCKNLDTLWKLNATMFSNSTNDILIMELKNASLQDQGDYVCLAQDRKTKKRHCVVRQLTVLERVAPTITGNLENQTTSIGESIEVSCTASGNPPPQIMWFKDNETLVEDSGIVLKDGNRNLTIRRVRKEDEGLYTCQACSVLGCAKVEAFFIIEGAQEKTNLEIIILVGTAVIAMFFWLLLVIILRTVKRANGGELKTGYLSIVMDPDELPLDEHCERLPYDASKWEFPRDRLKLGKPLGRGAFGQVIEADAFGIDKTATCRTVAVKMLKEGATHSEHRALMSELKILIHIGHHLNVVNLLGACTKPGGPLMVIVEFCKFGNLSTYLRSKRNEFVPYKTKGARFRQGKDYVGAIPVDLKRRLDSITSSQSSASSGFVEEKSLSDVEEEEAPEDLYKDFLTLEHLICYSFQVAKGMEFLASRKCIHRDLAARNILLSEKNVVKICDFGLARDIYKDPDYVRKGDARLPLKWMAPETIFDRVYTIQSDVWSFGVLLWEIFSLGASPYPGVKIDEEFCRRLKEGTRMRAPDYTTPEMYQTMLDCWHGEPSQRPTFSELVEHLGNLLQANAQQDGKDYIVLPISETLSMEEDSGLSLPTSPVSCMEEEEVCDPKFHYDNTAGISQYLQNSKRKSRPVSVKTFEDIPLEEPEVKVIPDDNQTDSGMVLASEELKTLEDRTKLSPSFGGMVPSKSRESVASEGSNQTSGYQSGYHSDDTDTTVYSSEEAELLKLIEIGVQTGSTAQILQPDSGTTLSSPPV

`COc1cc2nccc(Oc3ccc(NC(=S)NCCN(C)C)c(Cl)c3)c2cc1C(N)=O` [Example 23]: the results for the IC50 on FGFR1, at PDGFRB and at VEGFR2 were 0.2 to 1 µM, 0.05 to 0.2 µM and 0.2 to 1 µM, respectively.

Turning to `COc1cc2nccc(Oc3ccc(NC(=S)Nc4ccccc4F)c(Cl)c3)c2cc1C(N)=O` [Example 65], the IC50 at FGFR1 was 0.2 to 1 µM; on PDGFRB it was less than 0.05 µM; on VEGFR2, 0.05 to 0.2 µM.

On to `O=C(Nc1ccc(Oc2ccnc3cc(-c4cn(-c5ccccc5)cn4)ccc23)c(F)c1Cl)NC1CC1` [Example 228], for which the IC50 at FGFR1, at PDGFRB and on VEGFR2 was 0.2 to 1 µM in each case.

For the compound `COc1cc2nccc(Oc3ccc(NC(=S)N4CC[C@@H](O)C4)c(Cl)c3F)c2cc1C(N)=O` [Example 111], the IC50 at FGFR1 lay within 0.05 to 0.2 µM; at PDGFRB it was 0.2 to 1 µM; on VEGFR2, 0.05 to 0.2 µM.

In the case of `COc1cc2nccc(Oc3ccc(NC(=S)NCCC#N)c(Cl)c3)c2cc1C(N)=O` [Example 18], the IC50 at FGFR1, on PDGFRB and at VEGFR2 was 0.2 to 1 µM throughout.

Consider `COc1cc2nccc(Oc3ccc(NC(=S)NCc4cccnc4)c(Cl)c3)c2cc1C(N)=O` [Example 20], for which the results for the IC50 on FGFR1, at PDGFRB and on VEGFR2 were 0.2 to 1 µM, less than 0.05 µM and 0.05 to 0.2 µM, respectively.

On to `COc1cc2nccc(Oc3ccc(Nc4c(NCc5ccncc5)c(=O)c4=O)c(Cl)c3)c2cc1C(N)=O` [Example 153], for which the IC50 at FGFR1, on PDGFRB and at VEGFR2 was 0.2 to 1 µM in each case.

Turning to `COc1cc2nccc(Oc3ccc(NC(=S)NC4CC4)c(Cl)c3)c2cc1C(=O)NCC(F)F` [Example 37], the IC50 on FGFR1 was 0.2 to 1 µM; at PDGFRB, 0.05 to 0.2 µM; at VEGFR2, less than 0.05 µM.

Consider `COc1cc2nccc(Oc3ccc(NC(=S)N4CCC4)c(Cl)c3)c2cc1C(N)=O` [Example 68], for which the IC50 at FGFR1, at PDGFRB and on VEGFR2 was 0.05 to 0.2 µM in each case.

`COc1cc2nccc(Oc3ccc(NC(=O)N4CCCC4)c(Cl)c3F)c2cc1C(N)=O` [Example 120]: the IC50 on FGFR1 was in the range of 0.2 to 1 µM; at PDGFRB it was 0.05 to 0.2 µM; at VEGFR2, 0.05 to 0.2 µM.

As for `CCCNc1c(Nc2ccc(Oc3ccnc4cc(OC)c(C(N)=O)cc34)cc2Cl)c(=O)c1=O` [Example 140], the IC50 on FGFR1, on PDGFRB and on VEGFR2 was 0.2 to 1 µM each time.

Consider `COc1cc2nccc(Oc3ccc(NC(=S)NC4CC4)c(Cl)c3)c2cc1NC(C)=O` [Example 182], for which the IC50 at FGFR1 lay within 0.2 to 1 µM; at PDGFRB, 0.2 to 1 µM; at VEGFR2, 0.05 to 0.2 µM.

With `COc1cc2nccc(Oc3ccc4c(c3)CCN4C(=S)NC3CC3)c2cc1C(N)=O` [Example 24], the IC50 at FGFR1, on PDGFRB and on VEGFR2 was 0.2 to 1 µM throughout.

Consider `COc1cc2nccc(Oc3ccc4c(c3)CCCN4C(=S)NCC(F)F)c2cc1C(N)=O` [Example 34], for which the IC50 lay within 0.2 to 1 µM on FGFR1, 0.05 to 0.2 µM on PDGFRB and 0.2 to 1 µM at VEGFR2.

Consider `COc1cc2nccc(Oc3ccc4c(c3)CN(CC(F)F)C(=O)N4)c2cc1C(N)=O` [Example 164], for which the IC50 at FGFR1, on PDGFRB and on VEGFR2 was 0.2 to 1 µM throughout.

`COc1cc2nccc(Oc3ccc(NC(=S)N4CCC(F)(F)C4)c(Cl)c3)c2cc1C(N)=O` [Example 66]: the IC50 on FGFR1 was in the range of 0.2 to 1 µM; at PDGFRB, 0.2 to 1 µM; on VEGFR2, 0.05 to 0.2 µM.

Turning to `COc1cc2nccc(Oc3ccc(N4CC(=O)N(C)C4=S)c(Cl)c3)c2cc1C(N)=O` [Example 82], the IC50 at FGFR1 is 0.2 to 1 µM; at PDGFRB, 0.05 to 0.2 µM; at VEGFR2, 0.2 to 1 µM.

Take `COc1cc2nccc(Oc3ccc(NC(=S)NC4CC4)c(Cl)c3)c2cc1C(=O)N1CCCC1` [Example 48]: the IC50 at FGFR1 is 0.2 to 1 µM; at PDGFRB, 0.05 to 0.2 µM; at VEGFR2 it was 0.2 to 1 µM.

For `COCCCNc1c(Nc2ccc(Oc3ccnc4cc(OC)c(C(N)=O)cc34)cc2Cl)c(=O)c1=O` [Example 141], the half-maximal inhibitory concentration (IC50) on FGFR1, at PDGFRB and on VEGFR2 was 0.2 to 1 µM each time.

On to `COc1cc2nccc(Oc3ccc(NC(=S)NC4CC4)c(Cl)c3)c2cc1C(=O)N(C)C` [Example 47], for which the IC50 at FGFR1, at PDGFRB and at VEGFR2 was 0.2 to 1 µM throughout.

For the compound `COc1cc2nccc(Oc3ccc(NC(=S)NCC(C)(C)O)c(Cl)c3)c2cc1C(N)=O` [Example 30], the IC50 on FGFR1, on PDGFRB and on VEGFR2 was 0.2 to 1 µM throughout.

`COc1cc2nccc(Oc3ccc4nc(NCc5cccc(C(F)(F)F)c5)sc4c3)c2cc1C(N)=O` [Example 161]: the IC50 on FGFR1, on PDGFRB and on VEGFR2 was 0.2 to 1 µM throughout.

Turning to `CCNC(=O)c1coc2cc(Oc3ccnc4cc(OC)c(C(N)=O)cc34)c(F)cc12` [Example 208], the IC50 was 0.2 to 1 µM at FGFR1, less than 0.05 µM on PDGFRB and 0.05 to 0.2 µM at VEGFR2.

Turning to `COc1cc2nccc(Oc3ccc(NC(=S)N4CCN(C)CC4)c(Cl)c3)c2cc1C(N)=O` [Example 51], the IC50 was in the range of 0.2 to 1 µM on FGFR1, 0.05 to 0.2 µM on PDGFRB and 0.2 to 1 µM at VEGFR2.

For the compound `CCC1NC(=O)c2cc3c(Oc4ccc(NC(=S)NC5CC5)c(Cl)c4)ccnc3cc2O1` (stereo not drawn) [Example 173], the IC50 on FGFR1, on PDGFRB and on VEGFR2 was 0.2 to 1 µM throughout.

For the compound `COc1cc2nccc(Oc3ccc(NC(=S)NC4CCC(F)(F)CC4)c(Cl)c3)c2cc1C(N)=O` [Example 61], the results for the IC50 at FGFR1, on PDGFRB and at VEGFR2 were 0.2 to 1 µM, 0.05 to 0.2 µM and 0.2 to 1 µM, respectively.

For the compound `COc1cc2nccc(Oc3ccc4c(C(=O)N5CC(F)(F)C5)c[nH]c4c3)c2cc1C(N)=O` [Example 189], the IC50 at FGFR1, on PDGFRB and at VEGFR2 was 0.2 to 1 µM throughout.

Regarding `O=C(Nc1ccc(Oc2ccnc3cc(-c4cncn4-c4ccccc4)ccc23)c(F)c1Cl)NC1CC1` [Example 227], the IC50 on FGFR1 was in the range of 0.2 to 1 µM; at PDGFRB it was 0.2 to 1 µM; on VEGFR2, 0.05 to 0.2 µM.

In the case of `COc1cc2nccc(Oc3cc(F)c(NC(=S)NC4CC4)c(F)c3)c2cc1C(N)=O` [Example 83], the results for the IC50 at FGFR1, on PDGFRB and on VEGFR2 were 0.2 to 1 µM, 0.05 to 0.2 µM and 0.05 to 0.2 µM, respectively.

On to `COc1cc2nccc(Oc3ccc(Nc4c(NCc5ccc(Cl)cc5)c(=O)c4=O)c(Cl)c3)c2cc1C(N)=O` [Example 151], for which the IC50 is 0.2 to 1 µM at FGFR1, less than 0.05 µM at PDGFRB and 0.2 to 1 µM on VEGFR2.

In the case of `COc1cc2nccc(Oc3ccc(NC(=O)C4(C(=O)NC5CC5)CC4)c(Cl)c3)c2cc1C(N)=O` [Example 168], the IC50 at FGFR1, on PDGFRB and on VEGFR2 was 0.2 to 1 µM in each case.

Turning to `COc1cc2nccc(Oc3ccc(Nc4c(NCc5ccccc5)c(=O)c4=O)c(Cl)c3)c2cc1C(N)=O` [Example 148], the results for the IC50 at FGFR1, at PDGFRB and on VEGFR2 were 0.2 to 1 µM, less than 0.05 µM and 0.2 to 1 µM, respectively.

As for `CCN(CC)CCNC(=O)c1cc2c(Oc3ccc(NC(=S)NC4CC4)c(Cl)c3)ccnc2cc1OC` [Example 39], the half-inhibitory concentration (IC50) was in the range of 0.2 to 1 µM at FGFR1, 0.05 to 0.2 µM on PDGFRB and 0.05 to 0.2 µM at VEGFR2.

With `COc1cc2nccc(Oc3ccc(Nc4c(NCCC#N)c(=O)c4=O)c(Cl)c3)c2cc1C(N)=O` [Example 137], the IC50 on FGFR1, on PDGFRB and at VEGFR2 was 0.2 to 1 µM throughout.

Take `COc1cc2nccc(Oc3ccc(NC(=S)N4CC(F)(F)C4)c(Cl)c3)c2cc1NC(C)=O` [Example 180]: the IC50 on FGFR1, on PDGFRB and on VEGFR2 was 0.2 to 1 µM throughout.

On to `COc1cc2nccc(Oc3ccc(NC(=O)N4CC[C@H](F)C4)c(Cl)c3F)c2cc1C(N)=O` [Example 117], for which the IC50 on FGFR1 lay in the range of 0.2 to 1 µM; at PDGFRB, 0.05 to 0.2 µM; on VEGFR2, 0.05 to 0.2 µM.

Take `CCN(CC)CCOc1cc2nccc(Oc3ccc(NC(=S)NC4CC4)c(Cl)c3)c2cc1C(N)=O` [Example 31]: the IC50 on FGFR1, on PDGFRB and on VEGFR2 was 0.2 to 1 µM throughout.

The IC50 is the concentration that gives 50% inhibition.

The values above are taken from patent US10654808B2, “Tyrosine kinase inhibitor and pharmaceutical composition comprising same” (GUANGDONG RAYNOVENT BIOTECH CO., LTD., priority 2015, dated 2020).
